{
  "source": "ChEMBL document CHEMBL1201862",
  "about": "“PubChem BioAssay data set” (2004)",
  "key": {"[1]": {"assay": "Luminescent dose response cell-based high throughput screening assay for inhibitors of the Janus kinase 2 mutant JAK2V617F. [Related pubchem assays: 1446 (Primary screen.), 1521 (Confirmation assay.), 1486 (Counter screen.)]", "type": "functional"}, "[2]": {"test_system": "Streptococcus sp. 'group A'", "assay": "growth inhibition of control SK(-) GAS strain, dose response, counter-screen for streptokinase expression inhibitor project, luminescence, kanamycin, BacTiterGlo, confirmation (AID 1900)", "type": "functional, organism-based"}, "[3]": {"target": "T1, Voltage-gated N-type calcium channel alpha-1B subunit/Amyloid beta A4 precursor protein-binding family A member 1 (Homo sapiens, UniProt Q00975+Q02410)", "T1 sequence (Q00975 whole entry)": "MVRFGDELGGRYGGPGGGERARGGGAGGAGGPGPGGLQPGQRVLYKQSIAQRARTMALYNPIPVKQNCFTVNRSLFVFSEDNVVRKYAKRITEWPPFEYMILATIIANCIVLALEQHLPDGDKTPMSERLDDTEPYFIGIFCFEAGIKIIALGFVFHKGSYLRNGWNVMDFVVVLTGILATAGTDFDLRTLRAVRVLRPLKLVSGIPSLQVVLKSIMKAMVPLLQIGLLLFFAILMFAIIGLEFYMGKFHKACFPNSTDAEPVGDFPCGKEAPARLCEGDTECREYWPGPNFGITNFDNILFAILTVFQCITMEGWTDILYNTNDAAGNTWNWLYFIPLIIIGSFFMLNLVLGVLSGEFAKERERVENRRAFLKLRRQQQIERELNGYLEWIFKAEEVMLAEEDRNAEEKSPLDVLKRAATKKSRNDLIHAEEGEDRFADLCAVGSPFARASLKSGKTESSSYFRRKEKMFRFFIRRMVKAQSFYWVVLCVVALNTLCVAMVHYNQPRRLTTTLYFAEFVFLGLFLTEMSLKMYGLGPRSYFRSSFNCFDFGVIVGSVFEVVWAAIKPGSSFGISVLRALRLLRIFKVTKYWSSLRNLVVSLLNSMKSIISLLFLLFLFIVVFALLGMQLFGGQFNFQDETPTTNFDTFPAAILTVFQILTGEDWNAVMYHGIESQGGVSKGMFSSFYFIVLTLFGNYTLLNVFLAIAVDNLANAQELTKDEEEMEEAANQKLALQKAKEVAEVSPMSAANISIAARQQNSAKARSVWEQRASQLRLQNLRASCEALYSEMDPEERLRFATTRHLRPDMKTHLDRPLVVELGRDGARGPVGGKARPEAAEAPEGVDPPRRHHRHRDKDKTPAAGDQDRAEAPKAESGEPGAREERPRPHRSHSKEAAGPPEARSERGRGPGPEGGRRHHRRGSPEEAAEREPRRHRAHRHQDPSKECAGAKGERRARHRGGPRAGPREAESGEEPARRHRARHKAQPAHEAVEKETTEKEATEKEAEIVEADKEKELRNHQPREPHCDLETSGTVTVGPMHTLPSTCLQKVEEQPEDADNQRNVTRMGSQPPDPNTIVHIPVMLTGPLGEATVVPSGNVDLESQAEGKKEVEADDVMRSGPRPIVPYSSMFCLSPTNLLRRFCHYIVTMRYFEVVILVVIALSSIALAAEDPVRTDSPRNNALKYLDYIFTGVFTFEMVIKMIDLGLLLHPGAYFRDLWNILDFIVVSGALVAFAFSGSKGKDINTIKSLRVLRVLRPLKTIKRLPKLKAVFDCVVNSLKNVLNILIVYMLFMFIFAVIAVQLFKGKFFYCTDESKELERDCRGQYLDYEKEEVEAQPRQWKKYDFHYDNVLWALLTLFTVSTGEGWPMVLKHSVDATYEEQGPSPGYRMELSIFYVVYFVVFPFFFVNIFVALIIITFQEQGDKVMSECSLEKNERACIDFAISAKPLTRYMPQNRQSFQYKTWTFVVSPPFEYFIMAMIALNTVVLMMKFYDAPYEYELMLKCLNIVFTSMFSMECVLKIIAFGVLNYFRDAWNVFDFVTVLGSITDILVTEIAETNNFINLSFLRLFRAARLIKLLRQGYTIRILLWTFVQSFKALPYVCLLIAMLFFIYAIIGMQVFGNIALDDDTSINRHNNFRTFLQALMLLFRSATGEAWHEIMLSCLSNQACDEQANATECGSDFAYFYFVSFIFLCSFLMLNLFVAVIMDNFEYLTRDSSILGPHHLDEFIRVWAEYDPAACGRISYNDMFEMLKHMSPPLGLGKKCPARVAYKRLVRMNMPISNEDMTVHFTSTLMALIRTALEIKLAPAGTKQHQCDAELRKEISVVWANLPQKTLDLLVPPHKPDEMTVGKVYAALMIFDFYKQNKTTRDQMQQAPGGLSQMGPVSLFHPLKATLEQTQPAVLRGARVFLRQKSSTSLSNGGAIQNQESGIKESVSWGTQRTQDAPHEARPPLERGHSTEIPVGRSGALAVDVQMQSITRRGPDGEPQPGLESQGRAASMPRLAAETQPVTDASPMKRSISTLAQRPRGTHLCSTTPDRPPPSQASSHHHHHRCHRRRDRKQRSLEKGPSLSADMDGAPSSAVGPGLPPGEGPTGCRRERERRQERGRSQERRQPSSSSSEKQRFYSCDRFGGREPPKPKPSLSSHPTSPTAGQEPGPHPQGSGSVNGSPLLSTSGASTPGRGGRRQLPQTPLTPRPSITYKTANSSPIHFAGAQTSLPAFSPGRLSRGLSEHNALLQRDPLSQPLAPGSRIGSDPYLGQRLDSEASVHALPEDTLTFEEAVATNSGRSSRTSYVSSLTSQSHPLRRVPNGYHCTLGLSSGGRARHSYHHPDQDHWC", "T1 sequence (Q02410 whole entry)": "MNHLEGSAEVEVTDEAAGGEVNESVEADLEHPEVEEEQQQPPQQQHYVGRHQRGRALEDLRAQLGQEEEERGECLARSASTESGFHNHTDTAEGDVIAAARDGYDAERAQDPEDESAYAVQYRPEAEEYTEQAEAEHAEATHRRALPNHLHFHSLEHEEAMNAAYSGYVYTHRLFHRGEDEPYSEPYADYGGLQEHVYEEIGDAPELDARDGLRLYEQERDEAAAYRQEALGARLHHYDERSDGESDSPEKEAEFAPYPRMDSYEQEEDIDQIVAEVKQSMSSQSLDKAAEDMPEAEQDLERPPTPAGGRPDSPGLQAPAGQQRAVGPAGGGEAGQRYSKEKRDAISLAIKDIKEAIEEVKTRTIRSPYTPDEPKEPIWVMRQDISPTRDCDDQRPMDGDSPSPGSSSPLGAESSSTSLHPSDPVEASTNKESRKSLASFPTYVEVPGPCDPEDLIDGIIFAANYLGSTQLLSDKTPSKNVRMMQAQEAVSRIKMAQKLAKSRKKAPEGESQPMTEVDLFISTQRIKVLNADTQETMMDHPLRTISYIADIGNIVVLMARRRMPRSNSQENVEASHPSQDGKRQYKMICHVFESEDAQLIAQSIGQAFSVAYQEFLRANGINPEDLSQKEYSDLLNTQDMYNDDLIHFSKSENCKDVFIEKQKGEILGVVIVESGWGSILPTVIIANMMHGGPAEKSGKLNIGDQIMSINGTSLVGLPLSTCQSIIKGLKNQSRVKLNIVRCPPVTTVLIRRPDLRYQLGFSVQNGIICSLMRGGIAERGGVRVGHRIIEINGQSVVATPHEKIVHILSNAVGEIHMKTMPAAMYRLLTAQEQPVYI", "type": "protein assay"}, "Streptokinase A": {"target": "T2, Streptokinase A (Streptococcus pyogenes serotype M1, UniProt P10520)", "T2 sequence (P10520 whole entry)": "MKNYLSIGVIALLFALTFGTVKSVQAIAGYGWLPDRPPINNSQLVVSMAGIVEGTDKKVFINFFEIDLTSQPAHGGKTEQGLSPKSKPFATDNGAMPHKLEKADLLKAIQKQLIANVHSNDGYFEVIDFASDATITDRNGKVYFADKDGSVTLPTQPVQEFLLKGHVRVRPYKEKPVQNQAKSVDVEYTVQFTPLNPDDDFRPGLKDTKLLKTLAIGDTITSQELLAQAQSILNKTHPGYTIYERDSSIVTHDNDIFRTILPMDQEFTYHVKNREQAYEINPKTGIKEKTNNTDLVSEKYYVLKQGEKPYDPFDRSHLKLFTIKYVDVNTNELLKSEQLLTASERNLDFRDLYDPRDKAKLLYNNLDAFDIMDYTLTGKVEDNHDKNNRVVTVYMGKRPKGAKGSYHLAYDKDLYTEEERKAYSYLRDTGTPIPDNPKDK", "assay": "S. pyogenes streptokinase expression inhibitors, potency, dose response, plasminogen activation absorbance, OD405 (AID 1914);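 further: secreted streptokinase activity via plasminogen activation per viability signal from cell pellet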", "type": "functional, Streptococcus pyogenes M1 GAS"}, "[4]": {"target": "T1, Voltage-gated N-type calcium channel alpha-1B subunit/Amyloid beta A4 precursor protein-binding family A member 1", "type": "protein assay", "remark": "listed apart in the source"}, "[5]": {"assay": "inhibitors of intracellular T. cruzi replication, confirmation, NIH3T3 host cells, beta-gal luminescence (AID 2044);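 further: luminescent beta-galactosidase reporter signal from transgenic T. cruzi replicating inside host cells; inhibitors lower the luminescence signal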", "type": "functional, cell-based"}, "[6]": {"assay": "cytotoxicity toward NIH3T3 fibroblasts, dose response, counter-screen, cell-based, ATP luminescence, mouse fibroblasts (AID 2010);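 further: cells exposed to compound for about 90 hours before reading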", "type": "functional"}, "Streptococcus": {"test_system": "Streptococcus", "assay": "Group A Streptococcus viability loss, dose response, counter-screen for streptokinase expression inhibitor project, luminescence, BacTiterGlo (AID 1915);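 further: potency for reduction of bacterial viability or growth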", "type": "functional, organism-based"}, "[7]": {"target": "Glucose-6-phosphate 1-dehydrogenase (Homo sapiens, UniProt P11413)", "sequence (P11413 whole entry)": "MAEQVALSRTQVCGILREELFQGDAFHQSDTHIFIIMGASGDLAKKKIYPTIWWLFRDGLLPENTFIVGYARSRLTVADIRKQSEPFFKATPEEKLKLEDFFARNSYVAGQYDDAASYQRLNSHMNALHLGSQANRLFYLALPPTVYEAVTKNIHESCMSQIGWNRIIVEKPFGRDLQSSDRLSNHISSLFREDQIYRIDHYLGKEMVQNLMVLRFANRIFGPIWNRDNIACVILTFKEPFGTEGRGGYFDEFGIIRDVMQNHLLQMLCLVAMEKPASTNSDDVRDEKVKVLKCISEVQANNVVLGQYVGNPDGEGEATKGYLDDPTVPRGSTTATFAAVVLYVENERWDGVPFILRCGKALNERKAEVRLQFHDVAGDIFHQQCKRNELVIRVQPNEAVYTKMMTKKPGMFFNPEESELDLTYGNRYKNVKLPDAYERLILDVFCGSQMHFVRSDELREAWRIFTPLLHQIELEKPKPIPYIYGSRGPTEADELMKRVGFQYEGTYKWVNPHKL", "assay": "human G6PD enzyme inhibitors, dose response, selectivity assay for P. falciparum G6PD inhibitor project, biochemical, fluorescence (AID 504792)", "type": "functional"}, "Beta-galactosidase": {"target": "Beta-galactosidase (Escherichia coli, UniProt Q8VNN2)", "assay": "beta-galactosidase enzyme inhibitors and activators, dose response, artefact control for CCR6 antagonist project, biochemical, E. coli enzyme, set 3 (AID 504712)", "type": "functional"}, "CHO": {"test_system": "CHO", "assay": "cytotoxicity in TLR9-MyD88 CHO cells, dose response, cytotoxicity control for TLR9-MyD88 binding inhibitor project, cell-based, luminescence (AID 588339);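 further: CHO cells stably coexpressing TLR9 and MyD88 fusions from primary screen; compound exposure lasted 48 hours before viability readout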", "type": "functional, hamster", "conditions": "Cricetulus griseus"}, "[8]": {"target": "Heat shock protein HSP 90-alpha (Homo sapiens, UniProt P07900)", "type": "functional, organism-based"}, "Melanocortin receptor 4": {"target": "Melanocortin receptor 4 (Homo sapiens, UniProt P32245)", "assay": "MC4R antagonist potency on cAMP, dose response, cell-based, TR-FRET, biased antagonists (AID 602298);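 further: antagonist potency against agonist-stimulated cAMP production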", "type": "functional"}, "[9]": {"assay": "Shn3 3'UTR reporter inhibitors, dose response, cell-based, Clone20 osteoblasts, firefly luciferase, cherry-picked (AID 624132)", "type": "functional"}, "[10]": {"assay": "HepG2 cell cytotoxicity, dose response, cytotoxicity control for Shn3 inhibitor project, CellTiter-Glo, cherry-picked (AID 624134)", "type": "functional, cell-based"}, "[11]": {"assay": "control 3'UTR Renilla luciferase suppression, dose response, counter-screen for Shn3 inhibitor project, cell-based, Clone20-Shn3RL, cherry-picked (AID 624133)", "type": "functional"}, "[12]": {"assay": "nonselective inhibitors of cellular cAMP signaling, dose response, counter-screen for MC4R biased antagonist project, cell-based, TR-FRET cAMP detection (AID 602305);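 further: U2OS cells stimulated with forskolin near its EC80 as the cAMP inducer; potency is for inhibition of forskolin-stimulated cAMP signaling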", "type": "functional"}, "[13]": {"target": "Voltage-dependent T-type calcium channel subunit alpha-1H (Homo sapiens, UniProt O95180)", "assay": "Cav3.2 T-type channel inhibitors, cell-based, synthetic library set 1, calcium flux (AID 493022)", "type": "functional"}, "[14]": {"target": "T3, Runt-related transcription factor 1/Core-binding factor subunit beta (Homo sapiens, UniProt Q01196+Q13951)", "T3 sequence (Q01196 whole entry, the tested form may be a part)": "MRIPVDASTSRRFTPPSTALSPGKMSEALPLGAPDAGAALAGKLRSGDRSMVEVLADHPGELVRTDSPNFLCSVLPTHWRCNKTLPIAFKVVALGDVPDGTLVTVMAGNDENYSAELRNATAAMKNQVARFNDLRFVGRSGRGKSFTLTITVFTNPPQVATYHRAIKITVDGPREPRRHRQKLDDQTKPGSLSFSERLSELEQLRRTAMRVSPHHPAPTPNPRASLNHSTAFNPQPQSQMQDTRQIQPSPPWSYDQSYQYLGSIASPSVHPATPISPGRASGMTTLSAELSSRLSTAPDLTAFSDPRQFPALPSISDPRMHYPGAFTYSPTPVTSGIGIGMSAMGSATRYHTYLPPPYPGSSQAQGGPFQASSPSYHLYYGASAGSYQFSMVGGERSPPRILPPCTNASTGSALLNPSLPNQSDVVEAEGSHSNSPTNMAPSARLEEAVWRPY", "T3 sequence (Q13951 whole entry, the tested form may be a part)": "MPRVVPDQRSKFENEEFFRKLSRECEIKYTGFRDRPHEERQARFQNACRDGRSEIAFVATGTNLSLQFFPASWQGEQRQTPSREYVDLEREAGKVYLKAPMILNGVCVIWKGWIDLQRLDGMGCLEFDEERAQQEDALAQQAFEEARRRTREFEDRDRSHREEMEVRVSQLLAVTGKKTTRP", "assay": "inhibitors of RUNX1 Runt–CBFb-SMMHC binding, primary screen, biochemical, FRET, Cerulean-Runt, Venus-CBFb-SMMHC, uHTS (AID 1434);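 further: partner is the CBFb-SMMHC leukemia fusion protein rather than wild-type CBFb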", "type": "protein assay"}, "[15]": {"target": "T3, Runt-related transcription factor 1/Core-binding factor subunit beta", "assay": "inhibitors of RUNX1 Runt–CBFb-SMMHC binding, biochemical, TR-FRET (AID 1438)", "type": "protein assay"}, "[16]": {"target": "Eukaryotic translation initiation factor 4H (Homo sapiens, UniProt Q15056)", "assay": "eIF4H inhibition in translation initiation, SAR follow-up (AID 435011)", "type": "functional"}, "[17]": {"target": "Polyadenylate-binding protein 1 (Homo sapiens, UniProt P11940)", "sequence (P11940 whole entry)": "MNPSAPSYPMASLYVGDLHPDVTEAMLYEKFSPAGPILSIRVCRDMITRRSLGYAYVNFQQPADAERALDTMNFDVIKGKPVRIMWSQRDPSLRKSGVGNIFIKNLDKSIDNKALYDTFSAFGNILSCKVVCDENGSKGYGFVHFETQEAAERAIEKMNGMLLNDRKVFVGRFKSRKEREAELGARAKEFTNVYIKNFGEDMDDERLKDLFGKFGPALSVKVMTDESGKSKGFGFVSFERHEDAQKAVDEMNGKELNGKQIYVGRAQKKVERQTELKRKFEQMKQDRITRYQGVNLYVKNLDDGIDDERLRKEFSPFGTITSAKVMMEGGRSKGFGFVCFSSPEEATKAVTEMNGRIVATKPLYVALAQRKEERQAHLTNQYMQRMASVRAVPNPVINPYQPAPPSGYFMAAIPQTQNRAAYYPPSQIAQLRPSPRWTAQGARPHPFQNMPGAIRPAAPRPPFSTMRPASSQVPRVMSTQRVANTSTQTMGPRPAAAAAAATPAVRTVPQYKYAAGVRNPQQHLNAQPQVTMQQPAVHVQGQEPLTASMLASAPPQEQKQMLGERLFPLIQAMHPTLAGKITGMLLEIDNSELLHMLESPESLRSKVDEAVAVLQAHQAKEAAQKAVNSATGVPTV", "assay": "PABP inhibition in translation initiation, SAR follow-up (AID 435018)", "type": "functional"}},
  "note": "Activity calls are given as the source filed them.",
  "data": [
    {"smiles": "O=C1C=CC(=O)N1CCNc1ncc(C(F)(F)F)cc1Cl", "values": [
      {"measurement": "IC50", "setting": "[1]", "result": "0.383 µM (active)"},
      {"measurement": "EC50", "setting": "[2]", "result": "10.4 µM (active)"},
      {"measurement": "IC50", "setting": "[3]", "result": "12 µM (active)"},
      {"measurement": "EC50", "setting": "Streptokinase A", "result": "> 150 µM (not active)"},
      {"measurement": "IC50", "setting": "[4]", "result": "1.53 µM (active)"},
      {"measurement": "EC50", "setting": "[5]", "result": "2.78 µM (active)"},
      {"measurement": "EC50", "setting": "[6]", "result": "3.98 µM (active)"},
      {"measurement": "EC50", "setting": "Streptococcus", "result": "> 150 µM (not active)"},
      {"measurement": "IC50", "setting": "[7]", "result": "> 80 µM (inactive)"},
      {"measurement": "IC50", "setting": "Beta-galactosidase", "result": "> 66.6 µM (inactive)"},
      {"measurement": "IC50", "setting": "CHO", "result": "1.62 µM (active)"},
      {"measurement": "AC50", "setting": "[8]", "result": "0.482 µM (active)"},
      {"measurement": "IC50", "setting": "Melanocortin receptor 4", "result": "12.3 µM (inactive)"},
      {"measurement": "AC50", "setting": "[9]", "result": "0.947 µM (active)"},
      {"measurement": "AC50", "setting": "[10]", "result": "16 µM (active)"},
      {"measurement": "AC50", "setting": "[11]", "result": "11.9 µM (active)"},
      {"measurement": "IC50", "setting": "[12]", "result": "15.1 µM (inactive)"}
    ]},
    {"smiles": "O=C(COc1ccc(F)cc1Cl)Nc1nnc(-c2ccc3c(c2)OCO3)o1", "values": [
      {"measurement": "EC50", "setting": "[13]", "result": "2.1 µM (active)"}
    ]},
    {"smiles": "N#Cc1c2c(c(NCc3ccco3)n3c1nc1ccccc13)CCC2", "values": [
      {"measurement": "IC50", "setting": "[14]", "result": "> 100 µM (inactive)"},
      {"measurement": "IC50", "setting": "[15]", "result": "> 100 µM (inactive)"}
    ]},
    {"smiles": "COc1ccc(NC(=O)C2CC(=O)N(C)/C(=N\\c3ccccc3OC)S2)cc1", "note": "(configuration not stated)", "values": [
      {"measurement": "IC50", "setting": "[16]", "result": "> 100 µM (inactive)"},
      {"measurement": "IC50", "setting": "[17]", "result": "> 100 µM (inactive)"}
    ]}
  ]
}
